Reference: patent publication US20220089609A1, “SUBSTITUTED QUINAZOLINONE DERIVATIVES AND THEIR USE AS POSITIVE ALLOSTERIC MODULATORS OF MGLUR4” (DOMAIN THERAPEUTICS, priority 2018, published 2022)
Values joined by “and” are separate entries in the source; they are usually repeats but may differ in a detail not shown here. Identical values can stand only once.

Columns and labels:
human mGluR4 (hmGluR4) = molecular target: T1, human mGluR4 (hmGluR4) (Homo sapiens, UniProt Q14833); assay: Calcium assay EC50 determination, positive allosteric modulator activity on hmGluR4 transiently over-expressed in HEK-293 cells; assay type: cell-based; settings: PAM mode with EC20 glutamate; hmGluR4 in HEK-293 cells; intracellular calcium (Fluo4AM); read-out: mGluR4 positive allosteric modulator activity, half maximal effective concentration (EC50)
T1 construct: expressed in transfected cells; host or cells: HEK-293 cells, transient co-transfection by electroporation
How it was run: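 HEK-293 cells transiently co-transfected with hmGluR4, chimeric G protein and glutamate transporters; Fluo4AM calcium read (ex 485/em 525 nm) on FLIPR Tetra. Compound alone 10 min for agonism, then EC20 glutamate with 3 min recording for PAM activity, versus buffer or EC20 glutamate basal.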

T1 sequence (Q14833 33-912): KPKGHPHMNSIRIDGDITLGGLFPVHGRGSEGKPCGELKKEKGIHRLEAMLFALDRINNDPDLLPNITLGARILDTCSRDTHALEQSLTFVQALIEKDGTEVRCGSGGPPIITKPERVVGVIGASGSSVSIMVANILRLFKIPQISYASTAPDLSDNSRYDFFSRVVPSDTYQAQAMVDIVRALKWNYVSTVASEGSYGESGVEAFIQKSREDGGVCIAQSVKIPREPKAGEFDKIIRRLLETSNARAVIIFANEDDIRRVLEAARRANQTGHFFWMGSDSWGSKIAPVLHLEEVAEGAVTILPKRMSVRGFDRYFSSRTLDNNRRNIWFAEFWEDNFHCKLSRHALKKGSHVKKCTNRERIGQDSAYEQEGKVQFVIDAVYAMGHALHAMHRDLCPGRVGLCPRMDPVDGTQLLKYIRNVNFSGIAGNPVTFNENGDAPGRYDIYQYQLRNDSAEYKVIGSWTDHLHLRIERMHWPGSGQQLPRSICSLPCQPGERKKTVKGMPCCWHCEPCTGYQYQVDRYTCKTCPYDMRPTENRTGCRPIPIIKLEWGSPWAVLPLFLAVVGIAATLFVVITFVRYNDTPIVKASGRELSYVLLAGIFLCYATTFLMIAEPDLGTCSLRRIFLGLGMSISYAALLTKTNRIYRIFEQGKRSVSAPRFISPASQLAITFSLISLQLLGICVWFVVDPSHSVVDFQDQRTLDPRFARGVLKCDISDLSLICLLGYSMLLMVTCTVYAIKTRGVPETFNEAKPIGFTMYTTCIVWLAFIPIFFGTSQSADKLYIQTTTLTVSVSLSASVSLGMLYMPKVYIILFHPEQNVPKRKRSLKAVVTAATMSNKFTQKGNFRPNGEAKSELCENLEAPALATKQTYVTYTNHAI

SMILES | EC50 (human mGluR4 (hmGluR4)) | melting point [°C]
Cc1cc(O[C@@H](C)C2CCOCC2)cc2c(=O)[nH]c(-c3cc(C(F)(F)F)ccn3)nc12 [Compound 111-S, S-8-Methyl-6-[1-(tetrahydro-pyran-4-yl)-ethoxy]-2-(4-trifluoromethyl-pyridin-2-yl)-3H-quinazolin-4-one] | 0.1 to 1 µM | 120 to 132
Cc1cc(CCN2CCCOCC2)cc2c(=O)[nH]c(-c3cnc4ccsc4c3)nc12.Cl [Compound 122, 8-Methyl-6-(2-[1,4]oxazepan-4-yl-ethyl)-2-thieno[3,2-b]pyridin-6-yl-3H-quinazolin-4-one hydrochloride] | ≤ 0.1 µM | > 250
Cc1cc(CCN2CC3CCC(C2)O3)cc2c(=O)[nH]c(-c3cc(C(F)(F)F)ccn3)nc12.Cl [Compound 162, 6-(2-(8-Oxa-3-azabicyclo[3.2.1]octan-3-yl)ethyl)-8-methyl-2-(4-(trifluoromethyl)pyridin-2-yl)quinazolin-4(3H)-one hydrochloride] | ≤ 0.1 µM | 160 to 170
COC1CCN(CCc2cc(C)c3nc(-c4cc(C(F)(F)F)ccn4)[nH]c(=O)c3c2)CC1.Cl [Compound 166, 6-(2-(4-methoxypiperidin-1-yl)ethyl)-8-methyl-2-(4-(trifluoromethyl)pyridin-2-yl)quinazolin-4(3H)-one hydrochloride] | 0.1 to 1 µM | > 250
Cc1cc(OCC2CCN(C)C(=O)C2)cc2c(=O)[nH]c(-c3cc4ccsc4cn3)nc12 (stereo not drawn) [Compound 130, 8-Methyl-6-(1-methyl-2-oxo-piperidin-4-ylmethoxy)-2-thieno[2,3-c]pyridin-5-yl-3H-quinazolin-4-one] | ≤ 0.1 µM | > 250
Cc1cc(CCN2CCN(C)C(=O)C2)cc2c(=O)[nH]c(-c3cc(C(F)(F)F)ccn3)nc12.Cl [Compound 144, 8-Methyl-6-[2-(4-methyl-3-oxo-piperazin-1-yl)ethyl]-2-[4-(trifluoromethyl)-2-pyridyl]-3H-quinazolin-4-one hydrochloride] | 0.1 to 1 µM | 148 to 150
Cc1cc(CCN2CCN(C)C(=O)C2)cc2c(=O)[nH]c(-c3cc4ccsc4cn3)nc12.Cl [Compound 142, 8-Methyl-6-[2-(4-methyl-3-oxo-piperazin-1-yl)ethyl]-2-thieno[2,3-c]pyridin-5-yl-3H-quinazolin-4-one hydrochloride] | 0.1 to 1 µM | > 250
Cc1cc(CCN2CC3(COC3)C2)cc2c(=O)[nH]c(-c3cc4sccc4cn3)nc12 [Compound 146, 8-Methyl-6-[2-(2-oxa-6-azaspiro[3.3]heptan-6-yl)ethyl]-2-thieno[3,2-c]pyridin-6-yl-3H-quinazolin-4-one] | 0.1 to 1 µM | 160 to 200
Cc1cc(OC2CCC(=O)N(C)C2)cc2c(=O)[nH]c(-c3cc(C(F)(F)F)ccn3)nc12 (stereo not drawn) [Compound 136, 8-Methyl-6-(1-methyl-6-oxo-piperidin-3-yloxy)-2-(4-trifluoromethyl-pyridin-2-yl)-3H-quinazolin-4-one] | ≤ 0.1 µM | > 250
Cl.O=c1[nH]c(-c2cc3sccc3cn2)nc2ccc(OCCCc3ccncc3)cc12 [Compound 3, 6-(3-Pyridin-4-yl-propoxy)-2-thieno[3,2-c]pyridin-6-yl-3H-quinazolin-4-one hydrochloride] | 0.1 to 1 µM and < 1 µM | > 250
Cc1cc(CCN2CC3(COC3)C2)cc2c(=O)[nH]c(-c3cc4ccsc4cn3)nc12 [Compound 145, 8-Methyl-6-[2-(2-oxa-6-azaspiro[3.3]heptan-6-yl)ethyl]-2-thieno[2,3-c]pyridin-5-yl-3H-quinazolin-4-one] | 1 to 10 µM | 220 to 225
Cc1cc(CN2CCCC2)cc2c(=O)[nH]c(-c3cc4ccsc4cn3)nc12.Cl [Compound 133, 8-Methyl-6-(pyrrolidin-1-ylmethyl)-2-thieno[2,3-c]pyridin-5-yl-3H-quinazolin-4-one hydrochloride] | 1 to 10 µM | > 250
COc1cnccc1CCCOc1ccc2nc(-c3cc4ccsc4cn3)[nH]c(=O)c2c1.Cl [Compound 62, 6-[3-(3-Methoxy-pyridin-4-yl)-propoxy]-2-thieno[2,3-c]pyridin-5-yl-3H-quinazolin-4-one hydrochloride] | 0.1 to 1 µM | 250 to 251
Cc1cc(OC2CCC(=O)N(C)C2)cc2c(=O)[nH]c(-c3cc4cccn4cn3)nc12 (stereo not drawn) [Compound 118, 8-Methyl-6-[(1-methyl-6-oxo-3-piperidyl)oxy]-2-pyrrolo[1,2-c]pyrimidin-3-yl-3H-quinazolin-4-one] | ≤ 0.1 µM | 220 to 230
COc1ccnc(-c2nc3ccc(OCCCc4ccncc4)cc3c(=O)[nH]2)c1.Cl [Compound 7, 2-(4-methoxy-pyridin-2-yl)-6-(3-pyridin-4-yl-propoxy)-3H-quinazolin-4-one hydrochloride] | 1 to 10 µM | > 250
Cc1cc(N2CCC3(CCOCC3)CC2)cc2c(=O)[nH]c(-c3cc4sccc4cn3)nc12 [Compound 120, 8-Methyl-6-(3-oxa-9-azaspiro[5.5]undecan-9-yl)-2-(thieno[3,2-c]pyridin-6-yl)quinazolin-4(3H)-one] | ≤ 0.1 µM | > 250
COc1cc(CCN2CCOCC2)cc2c(=O)[nH]c(-c3cc(C(F)(F)F)ccn3)nc12.Cl [Compound 158, 8-Methoxy-6-(2-morpholinoethyl)-2-(4-(trifluoromethyl)pyridin-2-yl)quinazolin-4(3H)-one hydrochloride] | 1 to 10 µM | > 250
COCCOc1ccc2nc(-c3cc4sccc4cn3)[nH]c(=O)c2c1 [Compound 36, 6-(2-Methoxy-ethoxy)-2-thieno[3,2-c]pyridin-6-yl-3H-quinazolin-4-one] | > 10 µM | 209 to 213
Cc1cc(CCN2CCOCC2)cc2c(=O)[nH]c(-c3cc4sccc4cn3)nc12.Cl [Compound 123, 8-Methyl-6-(2-morpholin-4-yl-ethyl)-2-thieno[3,2-c]pyridin-6-yl-3H-quinazolin-4-one hydrochloride] | ≤ 0.1 µM | > 250

Now from value to compound:

EC50 (human mGluR4 (hmGluR4)) | melting point [°C] | SMILES
≤ 0.1 µM | 200 to 212 | Cc1cc(CCN2CCS(=O)(=O)CC2)cc2c(=O)[nH]c(-c3cc4sccc4cn3)nc12 [Compound 149, 6-(2-(1,1-Dioxidothiomorpholino)ethyl)-8-methyl-2-(thieno[3,2-c]pyridin-6-yl)quinazolin-4(3H)-one]
≤ 0.1 µM | 150 to 180 | Cc1cc(O[C@@H](C)C2CCOCC2)cc2c(=O)[nH]c(-c3cc4ccsc4cn3)nc12 [Compound 110-S, S-8-Methyl-6-[1-(tetrahydro-pyran-4-yl)-ethoxy]-2-thieno[2,3-c]pyridin-5-yl-3H-quinazolin-4-one]
0.1 to 1 µM | > 250 | CC(=O)N1CCC(COc2ccc3nc(-c4cc5ccsc5cn4)[nH]c(=O)c3c2)CC1 [Compound 47, 6-(1-Acetyl-piperidin-4-ylmethoxy)-2-thieno[2,3-c]pyridin-5-yl-3H-quinazolin-4-one]
0.1 to 1 µM | > 250 | Cl.O=c1[nH]c(-c2cc(C(F)(F)F)ccn2)nc2ccc(OCCCc3ccncc3)nc12 [Compound 67, 6-(3-Pyridin-4-yl-propoxy)-2-(4-trifluoromethyl-pyridin-2-yl)-3H-pyrido[3,2-d]pyrimidin-4-one hydrochloride]
0.1 to 1 µM | > 250 | Cc1cc(CC(=O)N2CCOCC2)cc2c(=O)[nH]c(-c3cc4ccsc4cn3)nc12 [Compound 127, 8-Methyl-6-(2-morpholino-2-oxo-ethyl)-2-thieno[2,3-c]pyridin-5-yl-3H-quinazolin-4-one]
≤ 0.1 µM | > 250 | Cc1cc(CN2CCSCC2)cc2c(=O)[nH]c(-c3cc4ccsc4cn3)nc12.Cl [Compound 137, 8-Methyl-2-thieno[2,3-c]pyridin-5-yl-6-(thiomorpholinomethyl)-3H-quinazolin-4-one hydrochloride]
≤ 0.1 µM | 188 to 195 | Cc1cc(OCC2(F)CCOC2)cc2c(=O)[nH]c(-c3cc(C(F)(F)F)ccn3)nc12 (stereo not drawn) [Compound 112, 6-[(3-fluorotetrahydrofuran-3-yl)methoxy]-8-methyl-2-[4-(trifluoromethyl)-2-pyridyl]-3H-quinazolin-4-one]
≤ 0.1 µM | > 250 | Cl.O=c1[nH]c(-c2cc(C(F)(F)F)ccn2)nc2c(Br)cc(CCN3CCOCC3)cc12 [Compound 159, 8-Bromo-6-(2-morpholinoethyl)-2-(4-(trifluoromethyl)pyridin-2-yl)quinazolin-4(3H)-one hydrochloride]
0.1 to 1 µM | 205 to 215 | COCCN(C)Cc1cc(C)c2nc(-c3cc4sccc4cn3)[nH]c(=O)c2c1.Cl [Compound 151, 6-(((2-Methoxyethyl)(methyl)amino)methyl)-8-methyl-2-(thieno[3,2-c]pyridin-6-yl)quinazolin-4(3H)-one hydrochloride]
1 to 10 µM | > 250 | Cc1cc(CN2CCCC2)cc2c(=O)[nH]c(-c3cc4sccc4cn3)nc12.Cl [Compound 139, 8-Methyl-6-(pyrrolidin-1-ylmethyl)-2-thieno[3,2-c]pyridin-6-yl-3H-quinazolin-4-one hydrochloride]
1 to 10 µM | > 250 | Cl.O=c1[nH]c(-c2ccc(F)cn2)nc2ccc(OCCCc3ccncc3)cc12 [Compound 8, 2-(5-Fluoro-pyridin-2-yl)-6-(3-pyridin-4-yl-propoxy)-3H-quinazolin-4-one hydrochloride]
